Data as given in ChEMBL document CHEMBL5696441 (Nat Chem Biol, 2011).

Legend:
[1] = tested on: Mast/stem cell growth factor receptor Kit (Homo sapiens), P10721 [V559D]; experiment: Inhibition of KIT V559D mutant (unknown origin) assessed as remaining activity at 1 uM by Kinome scan method relative to control
[2] = biological target: G protein-coupled receptor kinase 4 (Homo sapiens) (UniProt P32298); experiment: Inhibition of human GRK4 assessed as residual activity at 1 uM using casein as substrate in presence of 33P-ATP by ProQinase assay relative to control
[3] = biological target: Homeodomain-interacting protein kinase 2 (Homo sapiens) (UniProt Q9H2X6); experiment: Inhibition of human HIPK2 assessed as residual activity at 1 uM using RBER-CHKtide as substrate in presence of 33P-ATP by ProQinase assay relative to control
[4] = biological target: Protein-tyrosine kinase 2-beta (Homo sapiens) (UniProt Q14289); experiment: Inhibition of human PYK2 assessed as residual activity at 1 uM using polyEY as substrate in presence of 33P-ATP by ProQinase assay relative to control
[5] = biological target: Tyrosine-protein kinase Fer (Homo sapiens) (UniProt P16591); experiment: Inhibition of FER (unknown origin) assessed as remaining activity at 1 uM by Kinome scan method relative to control
Tyrosine-protein kinase Fer (Homo sapiens), sequence (P16591 whole entry, looked up): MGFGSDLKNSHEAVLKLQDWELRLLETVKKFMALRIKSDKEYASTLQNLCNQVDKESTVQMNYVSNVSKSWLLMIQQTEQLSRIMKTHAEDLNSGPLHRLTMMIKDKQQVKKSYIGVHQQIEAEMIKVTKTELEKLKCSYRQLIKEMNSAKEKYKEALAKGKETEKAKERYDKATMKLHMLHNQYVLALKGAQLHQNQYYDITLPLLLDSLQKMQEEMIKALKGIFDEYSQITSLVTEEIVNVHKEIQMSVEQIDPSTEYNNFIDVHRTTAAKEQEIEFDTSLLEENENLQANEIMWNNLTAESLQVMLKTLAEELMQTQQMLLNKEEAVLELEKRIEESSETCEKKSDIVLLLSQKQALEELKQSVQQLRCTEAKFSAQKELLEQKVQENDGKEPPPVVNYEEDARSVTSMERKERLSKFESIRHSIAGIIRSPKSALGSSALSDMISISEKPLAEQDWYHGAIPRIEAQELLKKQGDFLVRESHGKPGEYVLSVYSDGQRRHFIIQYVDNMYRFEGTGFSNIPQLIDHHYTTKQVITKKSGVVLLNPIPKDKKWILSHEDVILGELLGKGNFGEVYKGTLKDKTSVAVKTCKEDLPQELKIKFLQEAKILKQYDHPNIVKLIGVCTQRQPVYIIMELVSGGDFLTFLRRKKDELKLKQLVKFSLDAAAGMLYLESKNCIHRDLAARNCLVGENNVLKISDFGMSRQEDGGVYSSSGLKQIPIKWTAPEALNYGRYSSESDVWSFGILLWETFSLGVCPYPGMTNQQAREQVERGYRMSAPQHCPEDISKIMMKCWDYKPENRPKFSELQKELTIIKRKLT

[6] = biological target: Mitogen-activated protein kinase 9 (Homo sapiens) (UniProt P45984); experiment: Inhibition of JNK2 (unknown origin) assessed as remaining activity at 1 uM by Kinome scan method relative to control
[7] = biological target: Glycogen synthase kinase-3 alpha (Homo sapiens) (UniProt P49840); experiment: Inhibition of human GSK3alpha assessed as residual activity at 1 uM using SUPT5 754-837 as substrate in presence of 33P-ATP by ProQinase assay relative to control
[8] = biological target: Insulin receptor-related protein (Homo sapiens) (UniProt P14616); experiment: Inhibition of human INSRR assessed as residual activity at 1 uM using poly(Ala,Glu,Lys,Tyr)6:2:5:1 as substrate in presence of 33P-ATP by ProQinase assay relative to control
[9] = biological target: Phosphatidylinositol 4-phosphate 5-kinase type-1 alpha (Homo sapiens) (UniProt Q99755); experiment: Inhibition of PIP5K1A (unknown origin) assessed as remaining activity at 1 uM by Kinome scan method relative to control
Phosphatidylinositol 4-phosphate 5-kinase type-1 alpha (Homo sapiens), sequence (Q99755 whole entry): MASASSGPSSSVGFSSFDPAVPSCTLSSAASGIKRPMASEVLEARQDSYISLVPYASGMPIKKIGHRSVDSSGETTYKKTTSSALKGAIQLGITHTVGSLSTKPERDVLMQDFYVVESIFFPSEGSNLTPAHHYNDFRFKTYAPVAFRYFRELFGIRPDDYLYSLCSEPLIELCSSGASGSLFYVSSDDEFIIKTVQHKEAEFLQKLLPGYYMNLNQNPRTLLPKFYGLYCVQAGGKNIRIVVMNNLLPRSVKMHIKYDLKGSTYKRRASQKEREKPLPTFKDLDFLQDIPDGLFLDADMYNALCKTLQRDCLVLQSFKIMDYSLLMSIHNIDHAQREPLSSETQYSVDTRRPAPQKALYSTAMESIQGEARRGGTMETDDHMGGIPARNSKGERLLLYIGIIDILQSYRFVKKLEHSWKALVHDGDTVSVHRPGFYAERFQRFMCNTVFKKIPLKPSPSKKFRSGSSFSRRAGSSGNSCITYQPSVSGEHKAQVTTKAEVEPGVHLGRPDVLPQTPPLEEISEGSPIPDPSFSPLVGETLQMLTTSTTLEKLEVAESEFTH

[10] = biological target: Death-associated protein kinase 3 (Homo sapiens) (UniProt O43293); experiment: Inhibition of human DAPK3 assessed as residual activity at 1 uM using RBER-GSK3 as substrate in presence of 33P-ATP by ProQinase assay relative to control
[11] = tested on: Hepatocyte growth factor receptor (Homo sapiens), P08581 [Y1230H]; experiment: Inhibition of human MET Y1230H mutant assessed as residual activity at 1 uM using poly(Ala,Glu,Lys,Tyr)6:2:5:1 as substrate in presence of 33P-ATP by ProQinase assay relative to control
[12] = biological target: NUAK family SNF1-like kinase 1 (Homo sapiens) (UniProt O60285); experiment: Inhibition of human ARK5 assessed as residual activity at 1 uM using RBER-CHKtide as substrate in presence of 33P-ATP by ProQinase assay relative to control
[13] = Anti-inflammatory activity against human derived medium respond PBMC cells assessed as inhibition in stimulated IL-5 cytokine release incubated for 2 hrs in the presence of LPS/SEB/aCD28 by Luminex based sandwich immunoassay; format: functional, cell-based
[14] = biological target: Death-associated protein kinase 2 (Homo sapiens) (UniProt Q9UIK4); experiment: Inhibition of human DAPK2 assessed as residual activity at 1 uM using RB-S6P as substrate in presence of 33P-ATP by ProQinase assay relative to control
[15] = biological target: Vascular endothelial growth factor receptor 3 (Homo sapiens) (UniProt P35916); experiment: Inhibition of human VEGFR3 assessed as residual activity at 1 uM using polyEY as substrate in presence of 33P-ATP by ProQinase assay relative to control
Vascular endothelial growth factor receptor 3 (Homo sapiens), sequence (P35916 whole entry): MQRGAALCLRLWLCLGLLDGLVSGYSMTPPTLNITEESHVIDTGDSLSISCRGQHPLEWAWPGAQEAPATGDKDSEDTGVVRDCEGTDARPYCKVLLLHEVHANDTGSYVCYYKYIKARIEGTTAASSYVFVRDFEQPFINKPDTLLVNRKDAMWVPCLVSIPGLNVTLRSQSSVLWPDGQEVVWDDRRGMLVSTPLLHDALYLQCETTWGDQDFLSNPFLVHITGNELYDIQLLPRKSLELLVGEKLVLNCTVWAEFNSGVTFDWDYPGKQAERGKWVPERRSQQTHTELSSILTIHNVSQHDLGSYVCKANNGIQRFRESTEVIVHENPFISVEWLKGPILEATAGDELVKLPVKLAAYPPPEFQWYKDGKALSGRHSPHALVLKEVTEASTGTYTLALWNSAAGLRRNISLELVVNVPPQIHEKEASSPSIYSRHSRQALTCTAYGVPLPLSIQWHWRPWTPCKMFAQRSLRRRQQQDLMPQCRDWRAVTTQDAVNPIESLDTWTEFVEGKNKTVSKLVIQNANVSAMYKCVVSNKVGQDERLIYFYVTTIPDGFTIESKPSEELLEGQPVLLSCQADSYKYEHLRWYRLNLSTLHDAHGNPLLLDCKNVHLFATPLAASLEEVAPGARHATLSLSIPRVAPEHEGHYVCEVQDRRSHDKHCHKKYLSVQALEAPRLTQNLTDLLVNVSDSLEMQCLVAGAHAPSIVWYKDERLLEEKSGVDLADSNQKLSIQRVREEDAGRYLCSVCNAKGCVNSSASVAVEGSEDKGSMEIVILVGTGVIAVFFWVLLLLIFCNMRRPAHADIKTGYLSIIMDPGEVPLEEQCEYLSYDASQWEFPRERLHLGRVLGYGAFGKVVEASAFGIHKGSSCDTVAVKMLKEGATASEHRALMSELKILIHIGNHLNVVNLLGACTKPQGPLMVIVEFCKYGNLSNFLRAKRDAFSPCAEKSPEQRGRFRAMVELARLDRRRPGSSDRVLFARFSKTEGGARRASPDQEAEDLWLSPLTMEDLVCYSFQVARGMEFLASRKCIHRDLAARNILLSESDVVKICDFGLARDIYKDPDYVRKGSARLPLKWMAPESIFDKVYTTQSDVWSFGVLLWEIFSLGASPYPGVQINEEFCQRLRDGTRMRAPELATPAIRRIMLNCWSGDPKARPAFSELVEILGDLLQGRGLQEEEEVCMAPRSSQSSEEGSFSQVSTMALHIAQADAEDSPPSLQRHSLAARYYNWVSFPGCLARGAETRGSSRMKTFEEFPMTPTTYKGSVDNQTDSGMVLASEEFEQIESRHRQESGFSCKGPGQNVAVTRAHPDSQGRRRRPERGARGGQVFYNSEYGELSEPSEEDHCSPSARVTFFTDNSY

[16] = biological target: Epidermal growth factor receptor (Homo sapiens) (UniProt P00533); experiment: Inhibition of EGFR (unknown origin) assessed as remaining activity at 1 uM by Kinome scan method relative to control
Epidermal growth factor receptor (Homo sapiens), sequence (P00533 whole entry): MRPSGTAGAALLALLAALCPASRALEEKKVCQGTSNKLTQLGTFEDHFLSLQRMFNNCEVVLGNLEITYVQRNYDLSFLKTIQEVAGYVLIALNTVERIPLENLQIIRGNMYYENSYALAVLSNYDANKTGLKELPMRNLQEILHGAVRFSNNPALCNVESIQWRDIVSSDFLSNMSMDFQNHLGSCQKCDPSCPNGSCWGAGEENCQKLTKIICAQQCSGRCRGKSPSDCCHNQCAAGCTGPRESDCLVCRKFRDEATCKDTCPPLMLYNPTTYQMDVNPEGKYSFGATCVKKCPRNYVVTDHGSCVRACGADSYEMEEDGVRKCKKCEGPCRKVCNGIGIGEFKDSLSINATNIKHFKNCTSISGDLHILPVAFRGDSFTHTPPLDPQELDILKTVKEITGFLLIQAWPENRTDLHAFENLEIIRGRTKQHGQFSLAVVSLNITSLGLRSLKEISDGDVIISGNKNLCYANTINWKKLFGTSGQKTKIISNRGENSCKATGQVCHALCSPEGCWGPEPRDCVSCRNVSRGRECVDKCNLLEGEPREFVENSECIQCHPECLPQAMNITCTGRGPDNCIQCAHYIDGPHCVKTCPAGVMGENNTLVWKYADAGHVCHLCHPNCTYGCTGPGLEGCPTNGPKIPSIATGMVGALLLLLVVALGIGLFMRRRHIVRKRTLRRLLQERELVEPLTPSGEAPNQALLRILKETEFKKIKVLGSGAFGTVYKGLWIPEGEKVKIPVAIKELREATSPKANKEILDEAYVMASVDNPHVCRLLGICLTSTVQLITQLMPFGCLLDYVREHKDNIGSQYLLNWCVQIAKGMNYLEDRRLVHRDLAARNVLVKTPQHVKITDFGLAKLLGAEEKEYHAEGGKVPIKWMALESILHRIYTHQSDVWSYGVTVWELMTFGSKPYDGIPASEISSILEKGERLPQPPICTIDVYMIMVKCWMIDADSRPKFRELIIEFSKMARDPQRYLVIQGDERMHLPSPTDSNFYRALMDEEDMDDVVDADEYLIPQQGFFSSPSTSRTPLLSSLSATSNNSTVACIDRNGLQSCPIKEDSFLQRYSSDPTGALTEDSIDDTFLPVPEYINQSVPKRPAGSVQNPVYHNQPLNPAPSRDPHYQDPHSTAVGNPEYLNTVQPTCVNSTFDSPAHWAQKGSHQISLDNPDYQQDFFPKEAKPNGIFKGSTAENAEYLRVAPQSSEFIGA

[17] = biological target: Tyrosine-protein kinase ABL2 (Homo sapiens) (UniProt P42684); experiment: Inhibition of human ABL2 assessed as residual activity at 1 uM using Poly(Ala,Glu,Lys,Tyr)6:2:5:1 as substrate in presence of 33P-ATP by ProQinase assay relative to control
[18] = Anti-inflammatory activity against human derived medium respond PBMC cells assessed as inhibition in stimulated IL-4 cytokine release incubated for 2 hrs in the presence of LPS/SEB/aCD28 by Luminex based sandwich immunoassay; format: functional, cell-based
[19] = biological target: Tyrosine-protein kinase SYK (Homo sapiens) (UniProt P43405); experiment: Inhibition of human SYK (1 to 635 residues) assessed as residual activity at 1 uM using polyEY as substrate in presence of 33P-ATP by ProQinase assay relative to control
[20] = biological target: Serine/threonine-protein kinase pim-3 (Homo sapiens) (UniProt Q86V86); experiment: Inhibition of PIM3 (unknown origin) assessed as remaining activity at 1 uM by Kinome scan method relative to control
[21] = biological target: Tyrosine-protein kinase receptor TYRO3 (Homo sapiens) (UniProt Q06418); experiment: Inhibition of human TYRO3 assessed as residual activity at 1 uM using PolyEY as substrate in presence of 33P-ATP by ProQinase assay relative to control
[22] = biological target: MAP kinase-activated protein kinase 5 (Homo sapiens) (UniProt Q8IW41); experiment: Inhibition of human MAPKAPK5 assessed as residual activity at 1 uM using RBER-CHKtide as substrate in presence of 33P-ATP by ProQinase assay relative to control
[23] = biological target: Serine/threonine-protein kinase MARK1 (Homo sapiens) (UniProt Q9P0L2); experiment: Inhibition of human MARK1 assessed as residual activity at 1 uM using RBER-CHKtide as substrate in presence of 33P-ATP by ProQinase assay relative to control
[24] = biological target: CYP2D6 (Homo sapiens, UniProt P10635); experiment: Inhibition of CYP2D6 (unknown origin) at 10 uM relative to control; format: ADME
[25] = tested on: Epidermal growth factor receptor (Homo sapiens), P00533 [UNDEFINED MUTATION]; experiment: Inhibition of human EGFR d747-752/P753S mutant assessed as residual activity at 1 uM using PolyEY as substrate in presence of 33P-ATP by ProQinase assay relative to control
[26] = biological target: Epidermal growth factor receptor (Homo sapiens) (UniProt P00533); experiment: Inhibition of human EGFR assessed as residual activity at 1 uM using PolyEY as substrate in presence of 33P-ATP by ProQinase assay relative to control
[27] = Anti-inflammatory activity against human derived medium respond PBMC cells assessed as inhibition in stimulated IL-1ra cytokine release incubated for 2 hrs in the presence of LPS/SEB/aCD28 by Luminex based sandwich immunoassay; format: functional, cell-based
[28] = tested on: Phosphatidylinositol 4,5-bisphosphate 3-kinase catalytic subunit alpha isoform (Homo sapiens), P42336 [E545A]; experiment: Inhibition of PIK3CA E545A mutant (unknown origin) assessed as remaining activity at 1 uM by Kinome scan method relative to control
Phosphatidylinositol 4,5-bisphosphate 3-kinase catalytic subunit alpha isoform (Homo sapiens), P42336 [E545A], sequence (P42336 whole entry E545A, canonical isoform): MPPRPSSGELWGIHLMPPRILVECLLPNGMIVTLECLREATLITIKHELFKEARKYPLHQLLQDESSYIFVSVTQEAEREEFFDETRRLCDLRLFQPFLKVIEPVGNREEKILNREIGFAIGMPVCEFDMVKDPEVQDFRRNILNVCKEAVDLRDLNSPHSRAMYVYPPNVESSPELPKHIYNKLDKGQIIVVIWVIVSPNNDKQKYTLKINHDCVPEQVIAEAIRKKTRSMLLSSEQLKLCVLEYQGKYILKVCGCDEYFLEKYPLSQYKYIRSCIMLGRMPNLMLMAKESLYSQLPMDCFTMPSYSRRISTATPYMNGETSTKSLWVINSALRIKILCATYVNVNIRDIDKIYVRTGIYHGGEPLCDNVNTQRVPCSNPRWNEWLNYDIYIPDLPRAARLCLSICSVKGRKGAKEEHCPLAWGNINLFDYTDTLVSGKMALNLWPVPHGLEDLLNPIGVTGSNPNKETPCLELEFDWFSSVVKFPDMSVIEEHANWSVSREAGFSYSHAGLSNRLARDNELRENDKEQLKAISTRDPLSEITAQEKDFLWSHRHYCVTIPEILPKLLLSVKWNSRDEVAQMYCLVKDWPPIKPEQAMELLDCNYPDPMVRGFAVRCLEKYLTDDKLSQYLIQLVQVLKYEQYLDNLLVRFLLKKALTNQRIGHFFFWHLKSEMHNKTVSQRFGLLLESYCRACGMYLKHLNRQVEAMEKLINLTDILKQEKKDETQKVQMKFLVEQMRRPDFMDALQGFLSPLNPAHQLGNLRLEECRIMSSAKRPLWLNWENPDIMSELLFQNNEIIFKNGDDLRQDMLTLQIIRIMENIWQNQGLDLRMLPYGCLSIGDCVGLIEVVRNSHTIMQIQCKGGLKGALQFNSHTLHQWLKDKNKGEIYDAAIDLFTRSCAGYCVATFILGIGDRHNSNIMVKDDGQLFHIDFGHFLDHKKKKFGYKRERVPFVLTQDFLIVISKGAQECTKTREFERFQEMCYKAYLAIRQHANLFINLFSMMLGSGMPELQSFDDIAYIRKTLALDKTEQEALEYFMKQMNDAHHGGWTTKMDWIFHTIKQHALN

## O=C1c2ccc(Nc3ccc(F)cc3F)cc2CCc2ccc(OC[C@H](O)CO)cc21 [Skepinone-L]
[1]
  Activity: 100%
[2]
  Activity: 100%
[3]
  Activity: 104%
[4]
  Activity: 102%
[5]
  Activity: 100%
[6]
  Activity: 100%
[7]
  Activity: 93%
[8]
  Activity: 98%
[9]
  Activity: 100%
[10]
  Activity: 89%
[11]
  Activity: 102%
[12]
  Activity: 115%
[13]
  IC50: Not Active
[14]
  Activity: 88%
[15]
  Activity: 100%
[16]
  Activity: 98%
[17]
  Activity: 99%
[18]
  IC50: Not Active
[19]
  Activity: 98%
[20]
  Activity: 100%
[21]
  Activity: 108%
[22]
  Activity: 97%
[23]
  Activity: 88%
[24]
  inhibition at 10 µM: -21%
[25]
  Activity: 93%
[26]
  Activity: 94%
[27]
  IC50: 870 nM
[28]
  Activity: 100%
